What all share (test): DTP human tumour cell line panel, 48 h
In experiment [1] the test system is HOP-62 NSCLC.
In experiment [2] the test system is NCI-H460 lung.
The test system of experiment [3] is SNB-19 CNS.
In experiment [4] the test system is A549 NSCLC.
For experiment [5], the system named is SR leukemia.
For experiment [6], the system named is K-562 leukemia.
Experiment [7] deals with 786-0 renal.
Experiment [8] relates to HT29 colon.
The test system of experiment [9] is BT-549 breast.
For experiment [10], the system named is UACC-257 melanoma.
Experiment [11] relates to TK-10 renal.
The subject of experiment [12] is SK-MEL-28 melanoma.
The subject of experiment [13] is HCC-2998 colon.
Experiment [14] deals with MOLT-4 leukemia.
Experiment [15] has as its system LOX IMVI melanoma.
The subject of experiment [16] is RPMI-8226 leukemia.
The subject of experiment [17] is HCT-116 colon.
For experiment [18], the system named is SN12C renal.
Experiment [19] deals with MDA-MB-435.

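Grown in 96-well plates, cells were treated for 48 hours with each compound at five concentrations. Insufficient inhibition: endpoint recorded as highest concentration tested. TGI denotes the concentration required for complete inhibition of growth.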

As to `C=C1CCCC(C)(C)C1CCC1(C)CCC(C(C)C(=O)OC)OO1` (centres undefined), the concentration for total growth inhibition (TGI) is 4.7 µM in experiment [1]; 3.77 µM in experiment [2]; above 18.1 µM in experiment [3]; 4.15 µM in experiment [4]; 9.78 µM in experiment [5]; above 25 µM in experiment [6]. Besides, the TGI in [7] is 0.76 µM; in experiment [8], above 25 µM; in experiment [9], 9.97 µM; in experiment [10], above 25 µM; in experiment [11], 7.72 µM; in [12], above 25 µM. Besides, the TGI in experiment [13] is 11.5 µM; in experiment [14], above 25 µM; in [15], 0.902 µM; in experiment [16], 25 µM; in experiment [17] it was above 25 µM; in experiment [18], 8.4 µM. In experiment [19], the TGI was 7.59 µM.
With `COC(=O)C1=C(OC(=O)/C(=C/c2ccccc2)c2ccc(Cl)cc2)C(C(=O)OC)[C@@]2(O)[C@@H](C(=O)OC)[C@H](C)C[C@@H]1[C@@H]2C(=O)OC` (some centres undefined), the total growth inhibition concentration (TGI) in experiment [1], in [2], in [3], in experiment [4], in [5] and in experiment [6] was above 100 µM throughout. Further, the TGI in experiment [7], in experiment [8], in experiment [9], in experiment [10], in experiment [11] and in [12] was above 100 µM each time. Besides, the TGI in experiment [13], in experiment [14], in experiment [15], in experiment [16], in experiment [17] and in [18] was above 100 µM throughout. In experiment [19], the TGI is above 100 µM.
As for `CCN(CC)CCN(C(=Nc1ccccc1)N1CCCCC1)c1ccccc1`, the TGI in experiment [1] was 22.2 µM; in experiment [2], 24.8 µM; in [3], above 100 µM; in experiment [4], 45.2 µM; in [5], 23.6 µM; in [6] it was 16.2 µM. Besides, the TGI in experiment [7] was determined as 85.9 µM; in [8], 30.9 µM; in experiment [9] it was 47 µM; in experiment [10], 34.7 µM; in experiment [11], 97.8 µM; in experiment [12] it was 46 µM. The TGI amounted to 19.9 µM in [13]; 25.2 µM in [14]; 23.7 µM in experiment [15]; 8.71 µM in experiment [16]; 3.35 µM in experiment [17]; 29 µM in experiment [18]. The same molecule came in with a concentration for total growth inhibition (TGI) in experiment [19] of 20.6 µM.
As to `NC(=O)c1ncn(C2OC(CO)C(O)C2O)c1NC=O` (centres undefined), the TGI in [1], in experiment [2], in experiment [3], in experiment [4], in experiment [5] and in experiment [6] was above 100 µM in each case. In addition, the TGI in experiment [7], in experiment [8], in experiment [9], in [10], in experiment [11] and in experiment [12] was above 100 µM in each case. Also, the TGI in experiment [13], in [14], in [15], in experiment [16], in experiment [17] and in [18] was above 100 µM each time. The TGI in [19] is above 100 µM.
Regarding `NC(=O)c1cccc(N=c2oc3ccc(Br)cc3cc2-c2nc3ccccc3[nH]2)c1`, the TGI in experiment [1] was 33.8 µM; in experiment [2], 43.6 µM; in experiment [3], 28.5 µM; in experiment [4], 26.4 µM; in experiment [5], above 100 µM; in experiment [6] it was 96.1 µM. Also, the TGI was 31.4 µM in experiment [7]; 34.7 µM in experiment [8]; 30.4 µM in experiment [9]; 43.4 µM in [10]; 30.7 µM in [11]; above 100 µM in experiment [12]. Further, the TGI in [13] was found to be 34.9 µM; in experiment [14], 43.4 µM; in [15], 37.5 µM; in [16], 53.4 µM; in experiment [17], 33.3 µM; in experiment [18] it was 34.4 µM. In experiment [19], this molecule registered a TGI of 39.4 µM.
Regarding `CN(C)CCNC(=O)c1cccc2c(NC(CS)C(=O)O)c3ccccc3[n+](C)c12` (centres undefined), the TGI in [1], in [2], in [3], in experiment [4], in experiment [5] and in experiment [6] was above 100 µM throughout. In addition, the TGI in [7] is above 100 µM; in experiment [8], above 100 µM; in experiment [9], 98.2 µM; in [10], above 100 µM; in experiment [11] it was above 100 µM; in [12] it was above 100 µM. In addition, the TGI in experiment [13], in experiment [14], in experiment [15], in [16], in [17] and in experiment [18] was above 100 µM throughout. In experiment [19], this molecule had a TGI above 100 µM.
Turning to `CCC1CCN=C(NS(=O)(=O)c2cc(C)c(Cl)cc2S)N1` (centres undefined), the TGI in experiment [1], in experiment [2], in [3], in experiment [4], in [5] and in experiment [6] was above 100 µM in each case. Moreover, the TGI was 97.9 µM in experiment [7]; 88.9 µM in [8]; 57.2 µM in experiment [9]; above 100 µM in experiment [10]; above 100 µM in experiment [11]; above 100 µM in experiment [12]. For the same molecule, the TGI in [13] is above 100 µM; in [14], 71.6 µM; in experiment [15], 53.2 µM; in experiment [16], 81.5 µM; in experiment [17], 94.6 µM; in experiment [18] it was above 100 µM. The TGI in experiment [19] worked out at 64.2 µM.
As for `CC(Oc1ccccc1Cl)C(=O)NN1C(=O)CC(=O)NC1=S` (centres undefined), the TGI in experiment [1], in experiment [2], in experiment [3], in experiment [4], in experiment [5] and in [6] was above 100 µM in each case. Further, the TGI in experiment [7], in experiment [8], in [9], in experiment [10], in experiment [11] and in [12] was above 100 µM each time. Moreover, the TGI in experiment [13], in [14], in experiment [15], in experiment [16], in [17] and in experiment [18] was above 100 µM each time. For the same molecule, the TGI in experiment [19] was above 100 µM.
For the molecule `CC(=O)OCC1OC(n2c3c(cc(C#N)c2=S)CCC3)C(OC(C)=O)C(OC(C)=O)C1OC(C)=O` (centres undefined), the TGI in [1], in experiment [2], in [3], in experiment [4], in experiment [5] and in experiment [6] was above 100 µM in each case. In addition, the TGI in [7], in [8], in experiment [9], in [10], in experiment [11] and in [12] was above 100 µM each time. The TGI in [13], in [14], in [15], in experiment [16], in [17] and in experiment [18] was above 100 µM in each case. The molecule also yielded a TGI in experiment [19] above 100 µM.
Consider `O=C(O)c1cc2c(cc1CC(Cc1ccc3c(c1)CCCC3)C(=O)O)CCCC2` (centres undefined), for which the TGI in experiment [1], in experiment [2], in experiment [3], in experiment [4], in [5] and in experiment [6] was above 100 µM throughout. Moreover, the TGI in experiment [7], in experiment [8], in experiment [9], in experiment [10], in experiment [11] and in experiment [12] was above 100 µM in each case. Further, the TGI in [13], in experiment [14], in [15], in [16], in experiment [17] and in experiment [18] was above 100 µM throughout. This molecule also displayed a TGI in experiment [19] above 100 µM.
For `N#Cc1ccc(CSC2=C(c3ccc(Cl)cc3)S/C(=C3\SC(SCc4ccc(C#N)cc4)=C(c4ccc(Cl)cc4)S3)S2)cc1`, the TGI in experiment [1], in experiment [2], in experiment [3], in experiment [4], in [5] and in [6] was above 100 µM throughout. The TGI in experiment [7], in experiment [8], in experiment [9], in experiment [10], in experiment [11] and in experiment [12] was above 100 µM throughout. The TGI in experiment [13], in experiment [14], in experiment [15], in [16], in experiment [17] and in experiment [18] was above 100 µM throughout. Moreover, the TGI in experiment [19] was above 100 µM.

The values are drawn from PubChem BioAssay (NCI).
